Results: PubChem BioAssay (NCI)
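Tested at 5 concentrations; 48 h exposure; 96-well plates; endpoints linearly interpolated, else capped at highest concentration. At the GI50, growth is halved. TGI is the concentration that stops growth completely.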

What was measured:
Test in all cases: NCI-60 cell line screen, 48 h
HS 578T breast = tested on: HS 578T breast
SF-539 CNS = tested on: SF-539 CNS
PC-3 prostate = tested on: PC-3 prostate
A498 renal = tested on: A498 renal
A549 NSCLC = tested on: A549 NSCLC
COLO 205 colon = tested on: COLO 205 colon
SNB-19 CNS = tested on: SNB-19 CNS
NCI-H460 lung = tested on: NCI-H460 lung
SK-OV-3 ovarian = tested on: SK-OV-3 ovarian
DU-145 prostate = tested on: DU-145 prostate
KM12 colon = tested on: KM12 colon
HOP-62 NSCLC = tested on: HOP-62 NSCLC
HOP-92 NSCLC = tested on: HOP-92 NSCLC
SN12C renal = tested on: SN12C renal
MCF7 breast = tested on: MCF7 breast
NCI-H226 lung = tested on: NCI-H226 lung
HT29 colon = tested on: HT29 colon
SF-295 CNS = tested on: SF-295 CNS
MOLT-4 leukemia = tested on: MOLT-4 leukemia
786-0 renal = tested on: 786-0 renal
K-562 leukemia = tested on: K-562 leukemia
SF-268 CNS = tested on: SF-268 CNS
OVCAR-5 ovarian = tested on: OVCAR-5 ovarian
SNB-75 CNS = tested on: SNB-75 CNS
UO-31 renal = tested on: UO-31 renal
IGROV1 ovarian = tested on: IGROV1 ovarian
MALME-3M melanoma = tested on: MALME-3M melanoma
OVCAR-3 ovarian = tested on: OVCAR-3 ovarian
OVCAR-4 ovarian = tested on: OVCAR-4 ovarian
UACC-257 melanoma = tested on: UACC-257 melanoma
HCT-15 colon = tested on: HCT-15 colon
NCI-H23 lung = tested on: NCI-H23 lung
MDA-MB-231 breast = tested on: MDA-MB-231 breast
NCI-H522 lung = tested on: NCI-H522 lung
RPMI-8226 leukemia = tested on: RPMI-8226 leukemia
HCC-2998 colon = tested on: HCC-2998 colon
T-47D breast = tested on: T-47D breast
MDA-MB-435 = tested on: MDA-MB-435
SK-MEL-28 melanoma = tested on: SK-MEL-28 melanoma
ACHN renal = tested on: ACHN renal
TK-10 renal = tested on: TK-10 renal
U251 CNS = tested on: U251 CNS
BT-549 breast = tested on: BT-549 breast
SW-620 colon = tested on: SW-620 colon
HL-60(TB) leukemia = tested on: HL-60(TB) leukemia
LOX IMVI melanoma = tested on: LOX IMVI melanoma
SK-MEL-5 melanoma = tested on: SK-MEL-5 melanoma
NCI/ADR-RES ovarian = tested on: NCI/ADR-RES ovarian
HCT-116 colon = tested on: HCT-116 colon
OVCAR-8 ovarian = tested on: OVCAR-8 ovarian
RXF 393 renal = tested on: RXF 393 renal
M14 melanoma = tested on: M14 melanoma
CAKI-1 renal = tested on: CAKI-1 renal
CCRF-CEM leukemia = tested on: CCRF-CEM leukemia
UACC-62 melanoma = tested on: UACC-62 melanoma
SR leukemia = tested on: SR leukemia
SK-MEL-2 melanoma = tested on: SK-MEL-2 melanoma
EKVX NSCLC = tested on: EKVX NSCLC

## COc1ccc(C(O)(CCC(C)C)C(CN2CCOCC2)c2ccc(Cl)cc2)cc1 (stereo not given)
HS 578T breast
  GI50: 15.2 µM
  TGI: 40.4 µM
SF-539 CNS
  GI50: 15.4 µM
  TGI: 30.3 µM
PC-3 prostate
  GI50: 6.03 µM
  TGI: 21 µM
A498 renal
  GI50: 10.9 µM
  TGI: 23.4 µM
A549 NSCLC
  GI50: 11.6 µM
  TGI: 35 µM
COLO 205 colon
  GI50: 12.7 µM
  TGI: 30.9 µM
SNB-19 CNS
  GI50: 14.8 µM
  TGI: 52.4 µM
NCI-H460 lung
  GI50: 11.4 µM
  TGI: 31.6 µM
SK-OV-3 ovarian
  GI50: 21.8 µM
  TGI: 75.8 µM
DU-145 prostate
  GI50: 15.4 µM
  TGI: 29.5 µM
KM12 colon
  GI50: 11.4 µM
  TGI: 26.2 µM
HOP-62 NSCLC
  GI50: 18.8 µM
  TGI: 37.4 µM
HOP-92 NSCLC
  GI50: 8 µM
  TGI: 21.7 µM
SN12C renal
  GI50: 13.4 µM
  TGI: 31.2 µM
MCF7 breast
  GI50: 10.4 µM
  TGI: 24.6 µM
NCI-H226 lung
  GI50: 13.2 µM
  TGI: 32.1 µM
HT29 colon
  GI50: 4.41 µM
  TGI: 20.1 µM
SF-295 CNS
  GI50: 13.4 µM
  TGI: 29.8 µM
MOLT-4 leukemia
  GI50: 9.83 µM
  TGI: 33.1 µM
786-0 renal
  GI50: 14 µM
  TGI: 28.6 µM
K-562 leukemia
  GI50: 15.1 µM
  TGI: 47 µM
SF-268 CNS
  GI50: 14 µM
  TGI: 29.3 µM
OVCAR-5 ovarian
  GI50: 12.2 µM
  TGI: 25.7 µM
SNB-75 CNS
  GI50: 13 µM
  TGI: 35.2 µM
UO-31 renal
  GI50: 11.3 µM
  TGI: 25.9 µM
IGROV1 ovarian
  GI50: 14.2 µM
  TGI: 54.2 µM
MALME-3M melanoma
  GI50: 19.1 µM
  TGI: 39.5 µM
OVCAR-3 ovarian
  GI50: 12.9 µM
  TGI: 26.2 µM
OVCAR-4 ovarian
  GI50: 12.1 µM
  TGI: 27.4 µM
UACC-257 melanoma
  GI50: 13.4 µM
  TGI: 33 µM
HCT-15 colon
  GI50: 10.3 µM
  TGI: 24.1 µM
NCI-H23 lung
  GI50: 9.85 µM
  TGI: 30.3 µM
MDA-MB-231 breast
  GI50: 12.1 µM
  TGI: 27.2 µM
NCI-H522 lung
  GI50: 6.7 µM
  TGI: 21.6 µM
RPMI-8226 leukemia
  GI50: 8.76 µM
  TGI: 31.2 µM
HCC-2998 colon
  GI50: 10.7 µM
  TGI: 24 µM
T-47D breast
  GI50: 11.4 µM
  TGI: 26.9 µM
MDA-MB-435
  GI50: 14.9 µM
  TGI: 37.3 µM
SK-MEL-28 melanoma
  GI50: 15.7 µM
  TGI: 34.4 µM
ACHN renal
  GI50: 14.4 µM
  TGI: 27.9 µM
TK-10 renal
  GI50: 16.7 µM
  TGI: 31.3 µM
U251 CNS
  GI50: 12.3 µM
  TGI: 26.3 µM
BT-549 breast
  GI50: 14.9 µM
  TGI: 30 µM
SW-620 colon
  GI50: 11.4 µM
  TGI: 26.8 µM
HL-60(TB) leukemia
  GI50: 14.8 µM
  TGI: 39.1 µM
LOX IMVI melanoma
  GI50: 14.5 µM
  TGI: 28 µM
SK-MEL-5 melanoma
  GI50: 13.8 µM
  TGI: 30.9 µM
NCI/ADR-RES ovarian
  GI50: 11.1 µM
  TGI: 34.2 µM
HCT-116 colon
  GI50: 4.68 µM
  TGI: 19.1 µM
OVCAR-8 ovarian
  GI50: 16.1 µM
  TGI: 41.5 µM
RXF 393 renal
  GI50: 6.49 µM
  TGI: 21.7 µM
M14 melanoma
  GI50: 13.9 µM
  TGI: 33.2 µM
CAKI-1 renal
  GI50: 14 µM
  TGI: 31.7 µM
CCRF-CEM leukemia
  GI50: 13.6 µM
  TGI: 34.8 µM
UACC-62 melanoma
  GI50: 13.4 µM
  TGI: 29.1 µM
SR leukemia
  GI50: 10.4 µM
  TGI: 28.9 µM

## O=C1c2ccccc2C(=O)c2c1nc1ccccc1c2-c1cncc(-c2c3c(nc4ccccc24)C(=O)c2ccccc2C3=O)c1
HS 578T breast
  TGI: 14.7 µM
SK-MEL-2 melanoma
  TGI: 44.6 µM
SF-539 CNS
  TGI: 60.5 µM
PC-3 prostate
  TGI: > 100 µM
A498 renal
  TGI: 26.7 µM
A549 NSCLC
  TGI: 22.3 µM
COLO 205 colon
  TGI: 19.8 µM
SNB-19 CNS
  TGI: > 82.7 µM
NCI-H460 lung
  TGI: 10 µM
SK-OV-3 ovarian
  TGI: > 100 µM
DU-145 prostate
  TGI: 16.1 µM
KM12 colon
  TGI: > 61.6 µM
HOP-62 NSCLC
  TGI: > 100 µM
HOP-92 NSCLC
  TGI: > 43.7 µM
SN12C renal
  TGI: 27.9 µM
MCF7 breast
  TGI: 32.8 µM
NCI-H226 lung
  TGI: 43.6 µM
HT29 colon
  TGI: 27.8 µM
SF-295 CNS
  TGI: 22.8 µM
MOLT-4 leukemia
  TGI: 12.2 µM
786-0 renal
  TGI: 67.4 µM
K-562 leukemia
  TGI: > 100 µM
SF-268 CNS
  TGI: > 62.8 µM
OVCAR-5 ovarian
  TGI: > 100 µM
SNB-75 CNS
  TGI: 21.1 µM
UO-31 renal
  TGI: 31.8 µM
IGROV1 ovarian
  TGI: 19.7 µM
MALME-3M melanoma
  TGI: 24.1 µM
OVCAR-3 ovarian
  TGI: > 75.6 µM
OVCAR-4 ovarian
  TGI: > 100 µM
UACC-257 melanoma
  TGI: 22.4 µM
HCT-15 colon
  TGI: 9.34 µM
NCI-H23 lung
  TGI: 2.62 µM
MDA-MB-231 breast
  TGI: 98.2 µM
NCI-H522 lung
  TGI: 19.6 µM
RPMI-8226 leukemia
  TGI: 3.51 µM
HCC-2998 colon
  TGI: 49.7 µM
T-47D breast
  TGI: 57.6 µM
MDA-MB-435
  TGI: 3.96 µM
SK-MEL-28 melanoma
  TGI: 28.7 µM
ACHN renal
  TGI: > 55.7 µM
TK-10 renal
  TGI: > 100 µM
U251 CNS
  TGI: > 45.8 µM
BT-549 breast
  TGI: 40 µM
SW-620 colon
  TGI: 37.8 µM
HL-60(TB) leukemia
  TGI: 18.3 µM
LOX IMVI melanoma
  TGI: 13.8 µM
SK-MEL-5 melanoma
  TGI: 4.22 µM
EKVX NSCLC
  TGI: > 100 µM
NCI/ADR-RES ovarian
  TGI: 51 µM
HCT-116 colon
  TGI: 24.7 µM
OVCAR-8 ovarian
  TGI: 27.1 µM
RXF 393 renal
  TGI: > 100 µM
M14 melanoma
  TGI: 32.4 µM
CAKI-1 renal
  TGI: 71.1 µM
CCRF-CEM leukemia
  TGI: 43.9 µM
UACC-62 melanoma
  TGI: 19.9 µM
SR leukemia
  TGI: 7.9 µM
